Values joined by “and” are separate entries in the source; they are usually repeats but may differ in a detail not shown here. Equal entries are not always repeated. Where two headings read alike, the source gives them in different places.
Key:
HEK293T cells [1] = experiment: Cytotoxicity: apoptosis induction (caspase-3/7 DEVD fluorogenic DNA dye); details: HEK293T, 24 h; for Apoptosis induction [AI]: apoptotic cell count normalized to 0.1% DMSO, single replicates
MAPK1 = target: T1, MAPK1 (Homo sapiens, UniProt P28482); experiment: Liability panel screening by DSF: MAPK1; assay type: binding; details: DSF, 20 µM, n=2; read-out: Mean ΔTM MAPK1
T1 construct: made in house
Method in brief: (§1)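 Thermal shift: in-house recombinant protein at 2 µM in 10 mM HEPES pH 7.5 with 500 mM NaCl, SYPRO Orange 1:1000, heated at 3 °C/min to 85 °C in technical duplicates. Tm is the Boltzmann inflection point, reported as ∆Tm in K.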

BRD4 = target: T2, BRD4 (Homo sapiens, UniProt O60885); experiment: Liability panel screening by DSF: BRD4; assay type: binding; details: DSF, 20 µM, n=2; read-out: Mean ΔTM BRD4
T2 construct: This panel comprised ten highly ligandable kinases and bromodomains; made in house
Method in brief: as §1

AURKA = target: T3, AURKA (Homo sapiens, UniProt O14965); experiment: Liability panel screening by DSF: AURKA; assay type: binding; details: DSF, 20 µM, n=2; read-out: Mean ΔTM AURKA
T3 construct: made in house
T3 sequence (O14965 1-403): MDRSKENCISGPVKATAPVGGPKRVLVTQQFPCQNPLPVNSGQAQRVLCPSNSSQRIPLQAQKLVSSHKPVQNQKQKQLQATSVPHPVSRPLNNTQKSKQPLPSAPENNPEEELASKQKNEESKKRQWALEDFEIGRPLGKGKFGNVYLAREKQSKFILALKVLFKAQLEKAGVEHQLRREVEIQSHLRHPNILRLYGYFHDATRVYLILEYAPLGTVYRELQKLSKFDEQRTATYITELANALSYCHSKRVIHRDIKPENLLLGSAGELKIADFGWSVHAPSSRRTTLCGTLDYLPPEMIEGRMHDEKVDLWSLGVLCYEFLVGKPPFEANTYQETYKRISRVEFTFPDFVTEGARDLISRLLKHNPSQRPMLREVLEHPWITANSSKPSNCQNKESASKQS
Method in brief: as §1

HEK293T cells [2] = experiment: Cytotoxicity: metabolic activity (WST-8 / CCK-8 assay); details: HEK293T, 24 h, WST-8, normalized to 0.1% DMSO, single replicates
BRPF1 = target: T4, BRPF1 (Homo sapiens, UniProt P55201); experiment: Liability panel screening by DSF: BRPF1; assay type: binding; details: DSF, 20 µM, n=2; read-out: Mean ΔTM BRPF1
T4 construct: This panel comprised ten highly ligandable kinases and bromodomains; made in house
T4 sequence (P55201 628-732 limits assumed): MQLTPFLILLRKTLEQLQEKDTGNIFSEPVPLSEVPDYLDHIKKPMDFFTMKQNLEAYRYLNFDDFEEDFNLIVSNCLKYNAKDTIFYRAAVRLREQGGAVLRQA
Method in brief: as §1

HEK293T cells [3] = experiment: Cytotoxicity: necrosis induction (red fluorescent dye for permeable plasma membranes); assay type: cell-based; details: 24 h, necrotic cell count normalized to 0.1% DMSO, single replicates;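 further: compounds applied in DMEM high glucose with 0.1% FCS and 0.1% DMSO, necrotic HEK293T cells counted by red staining of cells whose plasma membranes had become permeable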
Gal4-VP16 = assay type: cell-based; details: vs. DMSO ctrl, single replicates n=1-3
Method: Five hours after transfection, the cells were incubated with the NR3 CG compound candidates at the recommended concentrations by changing the medium to Opti-MEM supplemented with penicillin (100 µ/mL) and streptomycin (100 µg/mL) additionally containing 0.1% DMSO and the respective test compound or 0.1% DMSO alone as untreated control. Firefly (reporter) and renilla (control) luminescence were measured after 14–16 h incubation using the Dual-Glo® Luciferase Assay System (Promega, Fitchburg, Wisconsin, USA; #E2980) according to manufacturer’s protocol on a Tecan Spark® 10M multimode microplate reader (Tecan Group AG, Männedorf, Switzerland). To obtain relative light units (RLU) firefly luminescence was divided by renilla luminescence and multiplied by 1000. Fold activation was obtained by dividing the mean RLU of a test sample by the mean RLU of the DMSO (0.1%) control. Experiments were performed in singlets in at least three biologically independent repeats.
are labeled according to their mode of action (yellow - agonist, grey - antagonist, grey with label D - degrader) and grouped by their
NR3 subfamily main targets.
reporter activity at the indicated concentrations expressed as mean fold reporter gene activity (n=3).

[4] = test system: ATF6 activity in Hela ATF6 reporter cells; experiment: Endoplasmic reticulum stress assay (ATF6 Renilla luciferase reporter, tunicamycin); assay type: cell-based; details: for ATF6 activity (tunicamycin-induced endoplasmic reticulum stress): Hela ATF6 reporter cells, tunicamycin 100 ng/mL, 18 h
Method in brief: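 ER stress was induced by 100 ng/mL tunicamycin added 4 h after compound (0.1% DMSO) to HeLa ATF6 reporter cells. After 18 h more, Renilla luciferase signal was read and expressed relative to DMSO control, n=5 biological replicates.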

TRIM24 = target: T5, TRIM24 (Homo sapiens, UniProt O15164); experiment: Liability panel screening by DSF: TRIM24; assay type: binding; details: DSF, 20 µM, n=2; read-out: Mean ΔTM TRIM24
T5 construct: This panel comprised ten highly ligandable kinases and bromodomains; made in house
T5 sequence (O15164 899-1004 limits assumed): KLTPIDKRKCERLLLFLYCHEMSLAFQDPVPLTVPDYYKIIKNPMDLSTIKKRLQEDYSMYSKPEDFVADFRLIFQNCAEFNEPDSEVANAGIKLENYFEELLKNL
Method in brief: as §1

CDK2 = target: T6, CDK2 (Homo sapiens, UniProt P24941); experiment: Liability panel screening by DSF: CDK2; assay type: binding; details: DSF, 20 µM, n=2; read-out: Mean ΔTM CDK2
T6 construct: made in house
Method in brief: as §1

FGFR3 = target: T7, FGFR3 (Homo sapiens, UniProt P22607); experiment: Liability panel screening by DSF: FGFR3; assay type: binding; details: DSF, 20 µM, n=2; read-out: Mean ΔTM FGFR3
T7 construct: made in house
Method in brief: as §1

ABL1 = target: T8, ABL1 (Homo sapiens, UniProt P00519); experiment: Liability panel screening by DSF: ABL1; assay type: binding; details: DSF, 20 µM, n=2; read-out: Mean ΔTM ABL1
T8 construct: made in house
Method in brief: as §1

GSK3B = target: T9, GSK3B (Homo sapiens, UniProt P49841); experiment: Liability panel screening by DSF: GSK3B; assay type: binding; details: DSF, 20 µM, n=2; read-out: Mean ΔTM GSK3B
T9 construct: made in house

CSNK1D = target: T10, CSNK1D (Homo sapiens, UniProt P48730); experiment: Liability panel screening by DSF: CSNK1D; assay type: binding; details: DSF, 20 µM, n=2; read-out: Mean ΔTM CSNK1D
T10 construct: made in house
Method in brief: as §1

HEK293T cells [5] = experiment: Cytotoxicity: growth-rate (change in confluence over 24 h); details: normalized to 0.1% DMSO control, single replicates (n=1...)
[6] = Homo sapiens, HeLa, single replicates n=1 to n=5, read-out: ER stress [rel. ATF6 activity]
[7] = compounds at recommended concentrations, n = 5

T1 sequence (P28482 whole entry, species assumed): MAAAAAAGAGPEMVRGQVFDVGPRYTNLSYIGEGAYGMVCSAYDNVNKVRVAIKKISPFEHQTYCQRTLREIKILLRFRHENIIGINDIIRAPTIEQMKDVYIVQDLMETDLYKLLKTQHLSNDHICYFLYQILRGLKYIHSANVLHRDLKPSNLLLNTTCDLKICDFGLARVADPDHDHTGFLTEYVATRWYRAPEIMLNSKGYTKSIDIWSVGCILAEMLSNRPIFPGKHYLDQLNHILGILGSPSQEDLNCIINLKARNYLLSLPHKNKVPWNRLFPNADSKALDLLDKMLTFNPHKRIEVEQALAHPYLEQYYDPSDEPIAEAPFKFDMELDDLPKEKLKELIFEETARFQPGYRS
T10 sequence (P48730 whole entry, species assumed): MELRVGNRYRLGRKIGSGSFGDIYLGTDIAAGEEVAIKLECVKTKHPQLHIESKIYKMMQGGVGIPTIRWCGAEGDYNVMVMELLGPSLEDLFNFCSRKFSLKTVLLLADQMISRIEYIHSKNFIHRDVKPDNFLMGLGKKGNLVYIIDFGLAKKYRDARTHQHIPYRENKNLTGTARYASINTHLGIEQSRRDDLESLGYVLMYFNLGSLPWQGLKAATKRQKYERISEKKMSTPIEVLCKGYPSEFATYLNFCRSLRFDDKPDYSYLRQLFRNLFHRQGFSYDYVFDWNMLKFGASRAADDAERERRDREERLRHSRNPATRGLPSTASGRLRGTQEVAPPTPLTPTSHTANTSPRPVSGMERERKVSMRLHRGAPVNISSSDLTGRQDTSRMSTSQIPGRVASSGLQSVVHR
T7 sequence (P22607 23-806, species assumed): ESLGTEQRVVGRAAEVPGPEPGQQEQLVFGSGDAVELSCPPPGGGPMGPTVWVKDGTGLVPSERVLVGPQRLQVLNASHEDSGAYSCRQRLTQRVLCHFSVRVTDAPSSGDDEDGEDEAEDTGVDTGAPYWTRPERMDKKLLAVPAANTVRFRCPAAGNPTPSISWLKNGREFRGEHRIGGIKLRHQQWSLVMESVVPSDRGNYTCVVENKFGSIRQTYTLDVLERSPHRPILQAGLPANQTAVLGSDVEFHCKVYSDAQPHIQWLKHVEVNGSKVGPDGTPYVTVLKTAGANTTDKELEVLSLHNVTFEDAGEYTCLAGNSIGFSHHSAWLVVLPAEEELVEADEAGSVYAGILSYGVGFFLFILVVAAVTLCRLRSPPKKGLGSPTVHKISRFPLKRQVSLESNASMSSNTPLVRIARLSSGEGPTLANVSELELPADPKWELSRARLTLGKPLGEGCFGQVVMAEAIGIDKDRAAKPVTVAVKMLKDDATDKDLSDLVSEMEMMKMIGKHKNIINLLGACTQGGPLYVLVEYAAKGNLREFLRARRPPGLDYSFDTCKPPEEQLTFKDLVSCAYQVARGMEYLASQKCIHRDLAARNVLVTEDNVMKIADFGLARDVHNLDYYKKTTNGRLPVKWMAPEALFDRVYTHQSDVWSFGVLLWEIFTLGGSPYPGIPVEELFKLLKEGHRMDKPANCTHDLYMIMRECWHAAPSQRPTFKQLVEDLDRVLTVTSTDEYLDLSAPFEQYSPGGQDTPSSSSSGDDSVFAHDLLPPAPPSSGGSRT
T9 sequence (P49841 whole entry, species assumed): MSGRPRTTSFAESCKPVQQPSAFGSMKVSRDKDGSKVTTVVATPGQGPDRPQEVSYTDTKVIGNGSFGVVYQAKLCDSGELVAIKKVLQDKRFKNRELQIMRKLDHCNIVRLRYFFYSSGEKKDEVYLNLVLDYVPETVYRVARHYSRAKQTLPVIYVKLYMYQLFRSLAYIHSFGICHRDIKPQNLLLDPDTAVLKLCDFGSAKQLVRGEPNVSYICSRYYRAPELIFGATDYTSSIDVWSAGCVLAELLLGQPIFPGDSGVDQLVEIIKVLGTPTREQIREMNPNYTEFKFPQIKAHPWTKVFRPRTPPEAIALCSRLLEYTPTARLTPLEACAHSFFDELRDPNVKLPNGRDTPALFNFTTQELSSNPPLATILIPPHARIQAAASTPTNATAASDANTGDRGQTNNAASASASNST
T8 sequence (P00519 whole entry, species assumed): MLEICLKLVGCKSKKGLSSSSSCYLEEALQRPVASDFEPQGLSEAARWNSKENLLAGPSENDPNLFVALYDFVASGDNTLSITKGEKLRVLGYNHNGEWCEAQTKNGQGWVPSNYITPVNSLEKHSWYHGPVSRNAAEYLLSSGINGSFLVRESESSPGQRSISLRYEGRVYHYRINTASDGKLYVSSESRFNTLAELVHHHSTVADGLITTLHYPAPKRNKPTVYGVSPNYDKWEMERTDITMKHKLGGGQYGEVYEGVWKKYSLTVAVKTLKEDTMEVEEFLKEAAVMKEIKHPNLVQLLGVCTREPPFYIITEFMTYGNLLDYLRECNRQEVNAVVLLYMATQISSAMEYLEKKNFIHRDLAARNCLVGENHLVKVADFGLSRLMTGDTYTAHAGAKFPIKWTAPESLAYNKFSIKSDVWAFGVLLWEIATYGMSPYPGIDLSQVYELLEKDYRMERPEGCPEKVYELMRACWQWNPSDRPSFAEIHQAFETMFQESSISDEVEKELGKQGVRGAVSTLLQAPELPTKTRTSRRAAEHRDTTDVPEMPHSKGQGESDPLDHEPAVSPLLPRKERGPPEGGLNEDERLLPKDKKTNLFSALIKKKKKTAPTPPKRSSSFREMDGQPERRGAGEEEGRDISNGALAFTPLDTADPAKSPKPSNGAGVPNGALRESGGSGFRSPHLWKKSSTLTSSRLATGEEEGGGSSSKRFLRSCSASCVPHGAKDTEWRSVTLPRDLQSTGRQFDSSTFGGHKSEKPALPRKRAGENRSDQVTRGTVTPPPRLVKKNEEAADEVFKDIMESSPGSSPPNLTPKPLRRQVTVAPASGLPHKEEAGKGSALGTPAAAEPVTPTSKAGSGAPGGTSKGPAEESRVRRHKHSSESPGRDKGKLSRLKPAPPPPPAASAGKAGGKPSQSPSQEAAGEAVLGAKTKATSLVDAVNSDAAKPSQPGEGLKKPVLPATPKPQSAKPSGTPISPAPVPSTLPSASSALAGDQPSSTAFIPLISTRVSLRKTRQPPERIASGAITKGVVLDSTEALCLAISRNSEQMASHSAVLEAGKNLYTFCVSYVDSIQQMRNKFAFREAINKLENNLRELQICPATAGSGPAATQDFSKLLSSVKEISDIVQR

Row | Structure (SMILES) | Apoptosis induction [AI] (HEK293T cells [1]; 3 µM) | ΔTm at 20 µM (MAPK1) [°C] | ΔTm at 20 µM (BRD4) [°C] | ΔTm at 20 µM (AURKA) [°C] | Metabolic activity [MA] (HEK293T cells [2]; 3 µM) | ΔTm at 20 µM (BRPF1) [°C] | Necrosis induction [NI] (HEK293T cells [3]; 3 µM) | ΔTm at 20 µM (TRIM24) [°C] | ΔTm at 20 µM (CDK2) [°C] | ΔTm at 20 µM (FGFR3) [°C] | ΔTm at 20 µM (ABL1) [°C] | ΔTm at 20 µM (GSK3B) [°C] | ΔTm at 20 µM (CSNK1D) [°C] | Apoptosis induction [AI] (HEK293T cells [1]; 1 µM) | Metabolic activity [MA] (HEK293T cells [2]; 1 µM) | Necrosis induction [NI] (HEK293T cells [3]; 1 µM) | VP16 control [fold reporter gene activity] (Gal4-VP16; 1 µM) | activity at 1 µM [4, 6] [%] | Growth rate [GR] (HEK293T cells [5]; 1 µM) | ATF6 activity (tunicamycin-induced endoplasmic reticulum stress) [4, 7] | further results
1 | CC/C(=C(\c1ccc(O)cc1)c1ccc(OCCN(C)C)cc1)c1ccccc1 [(Z)-4-Hydroxytamoxifen] | 1.07 and 1.34 and 1.98 and 1.60 and 1.04 and 1.22 | 0.0336 | -3.37 | 0.07 | 0.88 and 0.94 and 0.92 and 0.98 and 0.96 and 0.89 and 1.00 and 0.84 | -1.98 | 1.55 and 1.35 and 1.14 and 1.44 | -0.41 | -0.23 | 0.53 | 0.29 | -1.45 | 0.12 |  |  |  |  |  |  |  | Apoptosis induction [AI] (HEK293T cells [1]; 0.3 µM): 0.84 and 1.40 and 1.81 and 1.38 and 0.62 and 0.65; Metabolic activity [MA] (HEK293T cells [2]; 0.3 µM): 1.00 and 1.02 and 0.89 and 0.98 and 0.96 and 0.95 and 1.06 and 0.84; Necrosis induction [NI] (HEK293T cells [3]; 0.3 µM): 0.97 and 1.43 and 0.88 and 1.20; VP16 control [fold reporter gene activity] (Gal4-VP16; 0.3 µM): 1.09 fold reporter gene activity and 0.88 fold reporter gene activity and 1.33 fold reporter gene activity; VP16 control [fold reporter gene activity] (Gal4-VP16; 3 µM): 1.11 fold reporter gene activity and 1.04 fold reporter gene activity and 1.49 fold reporter gene activity; ATF6 activity (tunicamycin-induced endoplasmic reticulum stress) ([4]; 0.3 µM): mediated resolution of the tunicamycin-induced endoplasmic reticulum stress; ATF6 activity (tunicamycin-induced endoplasmic reticulum stress) ([4]; 3 µM): lacked this effect; activity at 0.3 µM ([4]; Homo sapiens, HeLa, 0.3 µM, single replicates n=1 to n=5, read-out: ER stress [rel. ATF6 activity]): 51%; Growth rate [GR] (HEK293T cells [5]; 0.3 µM): 1.08 and 2.89 and 1.33 and 1.37 and 0.91 and 0.88 and 0.61 and 1.06 and 2.68 and 37.77; Growth rate [GR] (HEK293T cells [5]; 3 µM): 0.97 and 4.28 and 1.10 and 0.79 and 0.56 and 0.41 and 0.43 and 1.54 and 1.12 and 39.66
2 | C[C@@H]1Cc2c([nH]c3ccccc23)[C@@H](c2c(F)cc(/C=C/C(=O)O)cc2F)N1CC(C)(C)F [AZD9496] |  | 0.55 | 0.36 | -0.16 |  | -4.53 |  | -0.62 | -0.07 | 0.58 | -0.24 | 0 | 0.64 | 0.64 and 1.56 and 0.90 and 1.15 and 1.90 and 3.05 | 1.04 (3×) and 1.02 and 0.97 and 0.99 and 1.00 (2×) | 1.09 and 0.96 and 0.78 and 2.03 | 1.31 fold reporter gene activity and 1.10 fold reporter gene activity and 1.59 fold reporter gene activity | 101 | 1.04 and 0.96 and 0.95 and 1.23 and 0.78 and 0.74 (3×) and 1.43 and 4.43 |  | apoptosis induction (HEK293T cells [1]; budesonide (3 µM), others at tested concentration): slight apoptosis induction
3 | CCN(CC)c1ccc(/C=N/NC(=O)c2ccc(O)cc2)cc1 [DY131] | -15.91 and -17.65 and -9.63 and -8.53 and 1.25 and 1.40 | 0.23 | -0.92 | -2.05 | 0.98 and 0.95 (2×) and 0.82 and 0.96 and 0.93 and 0.87 and 0.92 | 1.09 | 0.73 and 0.89 and 0.91 and 0.92 | -3.28 | 0.35 | 0.00876 | 0.66 | -0.28 | -0.0354 |  |  |  |  |  |  | strongly ameliorated the tunicamycin-induced endoplasmic reticulum stress | VP16 control [fold reporter gene activity] (Gal4-VP16; 3 µM): 1.12 fold reporter gene activity and 1.24 fold reporter gene activity and 1.20 fold reporter gene activity; activity at 3 µM ([4]; Homo sapiens, HeLa, 3 µM, single replicates n=1 to n=5, read-out: ER stress [rel. ATF6 activity]): 25%; Growth rate [GR] (HEK293T cells [5]; 3 µM): 0.59 and 11.37 and 0.74 and 0.90 and 0.70 and 0.29 and 0.57 and 4.91 and 1.76 and 192.70
4 | Cc1ccc2c(NC[C@](O)(CC(C)(C)c3cc(F)cc4c3OCC4)C(F)(F)F)cccc2n1 [Mapracorat] |  | -0.47 | -0.11 | -0.69 |  | 0.63 |  | -0.84 | -0.17 | -1.28 | 0.24 | -0.25 | -0.78 | -0.37 and -0.27 and 0.87 and 1.32 and 1.12 and 1.57 | 1.04 and 1.02 (2×) and 0.95 and 0.98 (2×) and 0.94 and 1.03 | 1.18 and 1.03 and 0.88 and 0.99 | 0.84 fold reporter gene activity and 0.88 fold reporter gene activity and 1.01 fold reporter gene activity | 83 | 0.90 and 6.11 and 0.92 and 1.17 and 0.84 and 0.73 and 1.07 and 1.61 and 3.67 and 14.17 | Consistently weaker ATF6 activity | 
5 | COc1cc(/C=C(\C#N)C(=O)Nc2nnc(C(F)(F)F)s2)ccc1OCc1ccc(C(F)(F)F)cc1C(F)(F)F [XCT790] |  | 0.28 | -2.31 | -0.27 |  | -1.02 |  | 0.29 | 0.38 | 0.83 | 0.47 | -0.62 | 0.0531 | 0.85 (2×) and 0.75 and 0.81 and 1.26 and 1.13 | 1.06 and 0.99 and 0.98 and 1.09 and 1.00 and 1.02 and 1.05 and 1.01 | 0.92 and 0.82 and 0.84 and 0.79 | 1.11 fold reporter gene activity and 0.95 fold reporter gene activity and 0.91 fold reporter gene activity | 100 | 0.75 and 0.63 and 1.18 and 1.17 and 1.04 (2×) and 0.70 and 0.89 and 0.87 and 0.19 | lacked this effect | 
